{
  "source": "patent US8022043B2",
  "about": "“Ceramide derivatives as modulators of immunity and autoimmunity” (Albert Einstein College of Medicine of Yeshiva University, priority 2004, dated 2011)",
  "key": {"NK T hybridoma DN3A4.1-2": {"tested_on": "NK T hybridoma DN3A4.1-2", "experiment": "Upregulation of CD40L (CD154), FACS", "format": "cell-based, mouse", "conditions": "0.5 uM glycolipid, 18 hours, RMA-S/CD1d cells", "description": "The upregulation of CD40L by ceramide-like glycolipids reported in FIG. 11 were obtained by incubating NK T hybridoma DN3A4.1-2 with RMA-S/CD1d cells at a ratio of 2:1 in the presence of 0.5 uM of ceramide-like glycolipid for 18 hours. Cells were then resuspended and labeled with mAbs specific for CD5 and CD40L. Levels of CD40L were determined by FACS analysis of the population gated for CD5 staining."}, "iNKT cells": {"tested_on": "iNKT cells", "experiment": "In vitro cytokine modulation, murine cell assay system", "format": "cell-based", "excerpt": "The term iNKT cells, as used herein, mean the specific subset of CD1d-dependent T cells that expresses the invariant TCRα chain rearrangement consisting of Vα14-Jα18 in mice, and Vα24-Jα18 in humans. These cells are uniformly reactive to α-galactosylceramides presented by CD1d. These cells are also referred to as “Type 1” NKT cells, and the distinction between the different types of NKT cells and the nomenclature relating to this are summarized in the publication by Godfrey et al., Nat Rev Immunol. 2004 March; 4(3):231-7. Methods for determining cytokine production by iNKT cells in response to CD1d-presented glycolipids for determination of strong or weak agonist activity are described in Yu K O A, Im J S, Molano A, Dutronc Y, Illarionov P A, Forestier C, Fujiwara N, Arias I, Miyake S, Yamamura T, Chang Y-T, Besra G S, Porcelli S A, Modulation of CD1d-restricted NKT cell responses using N-acyl variants of α-galactosylceramides, Proc. Nat. Acad. Sci. (USA), 102:3383-8 (2005), see also Godfrey D I et al., Nat Rev Immunol. 2004 March; 4(3):231-7."}, "NZB/W-F1 mice": {"tested_on": "NZB/W-F1 mice", "experiment": "SLE in NZB/W-F1 mice", "format": "in vivo"}, "C57BL/6 mice": {"tested_on": "C57BL/6 mice", "experiment": "Serum IL-4 and IFNγ after a single i.p. injection", "format": "in vivo", "conditions": "20 hours after single i.p. injection of 4.8 nanomoles", "description": "Serum levels of L-4 and IFNγ after a single injection of DB01-1, DB03-4, or DB03-5 are shown. C57BL/6 mice (11-13 weeks old) were given a single i.p. injection of 4.8 nanomoles of the compounds or phosphate buffered saline (PBS)/vehicle control. Serum cytokine levels were measured 2 and 20 hours later by capture ELISA. Bars show means of three mice, with standard deviation. Note that DB01-1 has nearly identical structure to KRN7000 (C24 fatty acid as compared to C26) and has activity that is indistinguishable from KRN7000 in multiple bioassays. We use DB01-1 as a “KRN7000 mimic” because it has been synthesized by our group and is readily available for our studies, and KRN7000 was unavailable due to license restrictions.\nA most intriguing property of KRN7000 analogues is that in some cases they may elicit immune responses that are qualitatively different from those that occur following stimulation with the parent compound. […] This selective activation of IL-4 production by NK T cells was proposed to be the basis for the enhanced therapeutic effects of OCH in the EAE model of central nervous system autoimmune disease. We have observed a similar in vivo effect on the nature of the NK T cell response using several of our ceramide-like glycolipids. […] These responses are similar to those seen for DB01-1, an analogue that is structurally almost identical to KRN7000 (C24 fatty acid instead of C26, otherwise identical) and indistinguishable in terms of its activity in our hands. […] This selective IL-4 induction is virtually identical to that reported for the OCH analogue, and thus illustrates the potential for amino substituted analogues of KRN7000 to induce qualitatively different immunomodulatory effects in vivo. The results reported in FIG. 9 were obtained by measuring serum levels of IL-4 and IFNγ after administering a single injection of […], DB03-4, or DB03-5 to C57BL/6 mice. C57BL/6 mice (11-13 weeks old) were given a single i.p. injection of 4.8 nanomoles of the ceramide-like glycolipids or PBS/vehicle control. Serum cytokine levels were measured 2 and 20 hours later by capture ELISA. Bars show means of three mice, with standard deviation.\nFor experiments involving in vivo treatment of mice with the ceramide-like glycolipids, the ceramide-like glycolipids were administered by i.p. or i.v. injection in 0.2 ml PBS+0.025% Tween-20, or in vehicle alone. A typical dose is about 4-5 nmoles per animal per injection. Representative references for administering an α-galactosyl ceramide to mice by i.p., i.v. or p.o. routes are S. Sharif et al., Activation of natural killer T cells by alpha-galactosylceramide treatment prevents the onset and recurrence of autoimmune Type 1 diabetes, Nat. Med., Sep. 7, 2001, (9):1057-62 and K. Miyamoto et al., A synthetic glycolipid prevents autoimmune encephalomyelitis by inducing TH2 bias of natural killer T cells, Nature. Oct. 4, 2001, 413(6855):5314."}, "[1]": {"tested_on": "Bulk splenocytes from C57BL/6 mice", "experiment": "Splenocyte proliferation assay (3H-thymidine incorporation)", "format": "cell-based", "conditions": "Mus musculus, concentration giving 50% maximal response in proliferation of splenocyte cultures"}, "[2]": {"tested_on": "Bulk splenocytes from C57BL/6 mice", "experiment": "Cytokine response of splenocyte cultures (IL-4 and IFNγ ELISA)", "format": "cell-based", "conditions": "500 nM glycolipid, 48 hours", "description": "The cytokine response reported in Table 1 and FIG. 5C was determined by the following procedure: Bulk splenocytes from C57BL/6 mice were plated at 300,000 per well in 96-well flat-bottom tissue culture plates with ceramide-like glycolipids diluted to a concentration of 500 nM in 200 microliters complete medium. After 48 h at 37° C., 150 microliters of supernatant was removed for cytokine measurements. Supernatant levels of IL-4, and IFNγ were measured by standard enzyme-linked immunosorbent assay (ELISA), using capture and biotinylated detection antibody pairs (clones 11B11/BVD6-24G2-biotin, and R4-6A2/XMG1.2-biotin, respectively, from BD Pharmingen, San Diego, Calif.). […] Standards for IL-4 and IFNγ were from Peprotech (Rocky Hill, N.J.)."}, "NOD mice": {"tested_on": "NOD mice", "conditions": "twice weekly injection from 4 weeks of age, reduction from 75%; cited from earlier work"}, "[3]": {"conditions": "culture supernatant ELISA, ND = below the reliable level for detection"}},
  "data": [
    {"compound": "CCCCCCCCCCCCCCCCCCCCCCCC(=O)N[C@@H](CO[C@@H]1OC(C)[C@@H](O)[C@H](O)C1O)[C@H](O)[C@H](O)CCCCCCCCCCCCCC", "note": "(some centres unmarked) [DB03-8]", "values": [
      {"measurement": "CD40L expression", "setting": "NK T hybridoma DN3A4.1-2", "value": "capable of inducing CD40L"},
      {"measurement": "agonist activity on iNKT cells", "setting": "iNKT cells; in vitro", "value": "weak agonist"},
      {"measurement": "in vitro activity at modulating cytokines", "setting": "iNKT cells; murine cell assay system", "value": "show in vitro activity"},
      {"measurement": "effect on SLE", "setting": "NZB/W-F1 mice", "value": "exacerbates SLE"}
    ]},
    {"compound": "CCCCCCCCCCCCCCCCCCCCCCCC(=O)N[C@@H](COC1OC(CO)C(O)C(O)C1O)[C@H](O)[C@H](O)CCCCCCCCCCCCCC", "note": "(some centres unmarked) [DB01-1]", "values": [
      {"measurement": "serum IFNγ response", "setting": "C57BL/6 mice", "value": "strong IFNγ response"},
      {"measurement": "EC50", "setting": "[1]", "value": 63.6, "unit": "nM"},
      {"measurement": "IL-4/IFNγ ratio divided by this ratio for DB01-1 (value in parentheses)", "setting": "[2]", "value": 1.0},
      {"measurement": "ratio IL-4/IFNγ", "setting": "[2]", "value": 0.026},
      {"measurement": "Cytokine Response IFNγ", "setting": "[2]; [3]", "value": 7.29, "unit": "ng/mL"},
      {"measurement": "Cytokine Response IL-4", "setting": "[2]; [3]", "value": 0.19, "unit": "ng/mL"}
    ]},
    {"compound": "CCCCCCCCCCCCCCCCCCCCCCCCCC(=O)N[C@@H](CO[C@H]1O[C@H](CO)[C@H](O)[C@H](O)[C@H]1O)[C@H](O)[C@H](O)CCCCCCCCCCCCCC", "note": "[KRN7000, (2S,3S,4R)-1-O-(α-D-galactopyranosyl)-N-hexacosanoyl-2-amino-1,3,4-octadecanetriol]", "values": [
      {"measurement": "incidence of diabetes", "setting": "NOD mice", "value": "approximately 5%"}
    ]}
  ]
}
